According to patent publication US20230089073A1 (Carmot Therapeutics, Inc., priority 2021, published 2023):
pEC50: −log10 of the molar value.

target: T1, human GLP-1 receptor (Homo sapiens, UniProt P43220); assay: GLP-1R cAMP Assay; format: cell-based; settings: cAMP accumulation in CHO cells stably overexpressing the human GLP-1 receptor; 30 min treatment; HitHunter cAMP kit; read-out: EC50
T1 construct: expressed in transfected cells
Procedure, shortened: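 Luminescent enzyme-complementation detection of cAMP, read after cell lysis and overnight incubation, with dose-response curve fitting. Stimulation lasted 30 min, using 20-point triplicate dosing on CHO cells (10,000 per well) stably overexpressing human GLP-1R.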

T1 sequence (P43220 24-463): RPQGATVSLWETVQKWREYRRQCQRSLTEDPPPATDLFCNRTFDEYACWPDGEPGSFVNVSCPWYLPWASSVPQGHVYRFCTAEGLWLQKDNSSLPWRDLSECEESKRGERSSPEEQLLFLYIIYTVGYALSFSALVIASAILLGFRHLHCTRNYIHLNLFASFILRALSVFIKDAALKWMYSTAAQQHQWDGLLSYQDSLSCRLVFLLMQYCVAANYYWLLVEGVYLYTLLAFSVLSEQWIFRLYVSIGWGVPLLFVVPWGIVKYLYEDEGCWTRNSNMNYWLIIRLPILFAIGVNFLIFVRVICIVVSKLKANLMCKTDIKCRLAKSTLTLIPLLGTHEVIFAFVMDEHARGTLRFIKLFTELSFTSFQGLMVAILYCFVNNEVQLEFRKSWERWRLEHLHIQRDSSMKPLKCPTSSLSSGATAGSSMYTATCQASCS

pEC50 | SMILES
> 7.30 | O=C(O)c1cc(F)c2nc(CN3CCC(Oc4ccnc(COc5ccc(F)cc5F)c4)CC3)n(C[C@@H]3CCO3)c2c1 [Compound 496, 2-{[4-({2-[(2,4-difluorophenoxy)methyl]pyridin-4-yl}oxy)piperidin-1-yl]methyl}-4-fluoro-1-{[(2S)-oxetan-2-yl]methyl}-1H-1,3-benzodiazole-6-carboxylic acid]
> 7.30 | CCn1cncc1Cn1c(CN2CCC(Oc3cccc(COc4ccc(Cl)cc4F)c3)CC2)nc2ccc(C(=O)O)cc21 [Compound 231, 2-[(4-{3-[(4-chloro-2-fluorophenoxy)methyl]phenoxy}piperidin-1-yl)methyl]-1-[(1-ethyl-1H-imidazol-5-yl)methyl]-1H-1,3-benzodiazole-6-carboxylic acid]
> 7.30 | N#Cc1cc(F)ccc1OCc1cccc(CC2CCN(Cc3nc4ccc(C(=O)O)cc4n3C[C@@H]3CCO3)CC2)c1 [Compound 187, 2-{[4-({3-[(2-cyano-4-fluorophenoxy)methyl]phenyl}methyl)piperidin-1-yl]methyl}-1-{[(2S)-oxetan-2-yl]methyl}-1H-1,3-benzodiazole-6-carboxylic acid]
6.30 to 7.30 | O=C(O)c1ccc2nc(CN3CCN(C(=O)c4ccc(Cc5ccc(Cl)cc5Cl)o4)CC3)n(C[C@@H]3CCO3)c2c1 [Example 59, (S)-2-((4-(5-(2,4-Dichlorobenzyl)furan-2-carbonyl)piperazin-1-yl)methyl)-1-(oxetan-2-ylmethyl)-1H-benzo[d]imidazole-6-carboxylic acid]
6.30 to 7.30 | Cc1ccc(N(C)c2cc(C(=O)N3CCN(Cc4nc5ccc(C(=O)O)cc5n4C[C@@H]4CCO4)CC3)ccc2F)c(Cl)c1 [Example 95, (S)-2-((4-(3-((2-Chloro-4-methylphenyl)(methyl)amino)-4-fluorobenzoyl)piperazin-1-yl)methyl)-1-(oxetan-2-ylmethyl)-1H-benzo[d]imidazole-6-carboxylic acid]
< 6.30 | Cc1ccccc1Oc1cccc(C(=O)N2CCN(Cc3nc4ccc(C(=O)O)cc4n3C[C@@H]3CCO3)CC2)c1 [Example 14, (S)-1-(Oxetan-2-ylmethyl)-2-((4-(3-(o-tolyloxy)benzoyl)piperazin-1-yl)methyl)-1H-benzo[d]imidazole-6-carboxylic acid]
6.30 to 7.30 | CCn1cncc1Cn1c(CN2CCC(Oc3ccccc3COc3ccc(Cl)cc3Cl)CC2)nc2ccc(C(=O)O)cc21 [Compound 272, 2-[(4-{2-[(2,4-dichlorophenoxy)methyl]phenoxy}piperidin-1-yl)methyl]-1-[(1-ethyl-1H-imidazol-5-yl)methyl]-1H-1,3-benzodiazole-6-carboxylic acid]
6.30 to 7.30 | Cc1ccc(N(C)c2cccc(C(=O)N3CCN(Cc4nc5ccc(C(=O)O)cc5n4C[C@@H]4CCO4)CC3)c2)cc1 [Compound 29, 2-[(4-{3-[methyl(4-methylphenyl)amino]benzoyl}piperazin-1-yl)methyl]-1-{[(2S)-oxetan-2-yl]methyl}-1H-1,3-benzodiazole-6-carboxylic acid]
< 6.30 | Cc1ccc(Cc2cccc(C(=O)N3CCN(Cc4nc5ccc(C(=O)O)cc5n4C[C@@H]4CCO4)CC3)c2)cc1 [Compound 33, 2-[(4-{3-[(4-methylphenyl)methyl]benzoyl}piperazin-1-yl)methyl]-1-{[(2S)-oxetan-2-yl]methyl}-1H-1,3-benzodiazole-6-carboxylic acid]
> 7.30 | O=C(O)c1ccc2nc(CN3CCC(Oc4cccc(COc5ccc(Cl)cc5F)c4)CC3)n(C[C@@H]3CCO3)c2c1 [Compound 221, 2-[(4-{3-[(4-chloro-2-fluorophenoxy)methyl]phenoxy}piperidin-1-yl)methyl]-1-{[(2S)-oxetan-2-yl]methyl}-1H-1,3-benzodiazole-6-carboxylic acid]
6.30 to 7.30 | N#Cc1ccc(COc2cccc(N3CCN(C(=O)c4ccc(-c5nnn[nH]5)nc4)CC3)n2)c(F)c1 [Example 92, 4-(((6-(4-(6-(1H-Tetrazol-5-yl)nicotinoyl)piperazin-1-yl)pyridin-2-yl)oxy)methyl)-3-fluorobenzonitrile]
